SMILES strings stand for the structures.

As to `Nc1ccc(S(=O)(=O)c2cc(-c3ccccc3)nc(N3CCCC3)c2)cc1`, the melting point lay in the range of 255 to 258 °C.
Under `O=C1NCCNCCNCCNC(=O)c2cccc1n2` stands 224 to 227 °C; under `Cc1c(CC(=O)NC2CCN(Cc3ccc(Cl)c(Cl)c3)CC2)cnn1-c1ccccc1`, 165 °C; under `C=CCN(c1ncnc2c1ncn2C1OC(CO)C(O)C1O)C1CCCCC1` (centres undefined), 123 to 125 °C.
Under `OC(COCC1CNCCO1)c1ccc2ccccc2c1` (centres undefined) stands 141 to 144 °C; under `CCn1cc(CN(C(=O)C2CCCc3ccccc32)c2ccc(C(C)C)cc2)cn1` (centres undefined), 75 to 76 °C.
As for `COc1ccc2onc(CC(N)=NO)c2c1`, the melting point is 180 to 183 °C.
Under `Nc1ccc(C(=O)c2ccncc2)cc1[N+](=O)[O-]` stands 294 to 295 °C; under `CCCCc1c2c(nc3c1CCc1cc4nc(C#N)c(N)cc4nc1-3)C(=O)CCC2`, more than 300 °C.
The result for `CCCCOP(=O)(CCCCC1(C(=O)NCC(F)(F)F)c2ccccc2-c2ccccc21)OCCCC` reads 71 to 74 °C; that for `COc1ccc(-c2cc(CN3CCN(C)CC3)c(=O)n(Cc3ccc(Cl)cc3)n2)cc1F`, 129 to 130 °C; that for `O=C1COc2cc(NC(=O)C(=O)N3CCC(Oc4ccccc4)CC3)ccc2N1`, 196 to 199 °C.
Under `COc1ccc(N)c2c1oc1ccccc12` stands 167 to 169 °C; under `COC(=O)Cn1c(=O)c(=O)[nH]c2ccccc21`, 269 °C; under `Cc1cc(C)c2nsnc2c1N`, 113 to 114 °C.
`CCCn1nc(SCCCCCC(=O)O)c(C(=O)O)c1Cc1cc2c(cc1Cl)OCO2` registered a melting point of 88 °C.
Regarding `CCc1nc2cc(NC(C)=O)c(Cl)cc2n1-c1ccc(CCNC(=O)NS(=O)(=O)c2ccc(C)cc2)cc1`, the melting point was in the range of 125 to 133 °C.
The result for `Fc1cc(C(F)(F)F)ccc1/C=C/c1nc(COc2ccc(-c3nc(Cn4ccnc4)cs3)cc2)co1` reads 133 to 135 °C.
For the compound `O=C1CCC(Cc2c[nH]c3ncccc23)N1` (centres undefined), the melting point lay in the range of 160 to 162 °C.
Compound `CCOC(=O)c1c(C)oc2cc(N(C(C)=O)S(C)(=O)=O)c(Oc3ccccc3)cc2c1=O` gave a melting point of 166 to 168 °C.
Under `CC12CCC(=O)C=C1CCC1C2C2CC3(C(O)O2)C(C(=O)COC(=O)CC(CC(=O)O)c2ccc(O)cc2)CCC13` (centres undefined) stands 145 to 152 °C; under `O=C(CCN1C[C@@H](O)[C@H](Oc2ccccc2)C1)c1ccc(F)cc1` (relative stereo), 77 to 80 °C.
Under `CON=CNC(=O)c1ccc(C2=NOC(c3cc(Cl)cc(Cl)c3)(C(F)(F)F)C2)cc1C` (centres undefined) stands 167 to 169 °C; under `ON=Cc1cc(F)ccc1Cl`, 133 to 134 °C.
The result for `Cc1nc(C(=O)O)cnc1Cl` reads 116 to 117 °C; that for `CC(C)C(=O)Nc1nc2c(ncn2C2OC(CO)C(O)C2OC2CCCO2)c(=O)[nH]1` (centres undefined), 178 to 180 °C; that for `CN1CN(c2ccccc2)C2(CCN(CCCn3c(=O)[nH]c4ccccc43)CC2)C1=O`, 186 °C.
For `N=c1nc(Nc2ccccc2)nc2[nH]c3ccccc3n12`, the melting point is more than 300 °C.
The result for `COc1cc(OC)cc(-c2ccc(N(C)CCN(C)c3ccc(-c4cc(OC)cc(OC)c4)nc3)cn2)c1` reads 139 to 141 °C.
The result for `FC(F)(F)c1cc(Cl)c(Oc2cc(C3CC3)[nH]n2)c(Cl)c1` reads 119 to 121 °C.
Turning to `CCN(CC)C(=O)c1sc(Cl)nc1C(F)(F)F`, the melting point is 40 to 41 °C.
Under `O=C(Nc1ccc(N2CCOCC2=O)cc1)[C@H]1C[C@@H](O)CN1C(=O)/C=C/c1ccc(Cl)s1` stands 151 °C; under `Cc1nc2c(c3c1[nH]c1ccc(Cl)cc13)C(=O)CC(C)(C)C2`, 244 to 246 °C; under `Cc1c(Cl)cc(C#N)n1CCC(C)NC(=O)C(C#N)C(C)C(C)(C)C` (centres undefined), 111 to 118 °C.

(Values after a melting point compilation (Tetko et al.; mined from patent text by program, amines drawn as free bases though some values may be those of a salt).)
